Structures are written as SMILES. Like-named read-outs stand apart in the source and are kept apart here. Where only a bound is given, the exact number is not on record here.

The target of one experiment is IKZF2 (Homo sapiens, UniProt Q96SW2+Q9UKS7). Nature of the experiment: Prolabel quantification of IKZF2 protein levels in 293GT cells. It is filed as cell-based. The method, then: (§1) The Prolabel system from DiscoverX was used to develop high-throughput and quantitative assays to measure changes in IKZF1, IKZF2 and GSPT1 protein levels in response to compounds. The prolabel tag was derived from the alpha fragment of beta galactosidase and has the following protein sequence: mssnslavvlqrrdwenpgvtqlnrlaahppfaswrnseeartdrpsqqlrslnge. The complementary fragment of beta-galactosidase (from DiscoverX), is added to the prolabel tag to form an active beta galactosidase enzyme whose activity can be precisely measured. In this way, the levels of a fusion protein with the prolabel tag can be quantified in cell lysates.
Sequence of IKZF2 (Q9UKS7 whole entry, the tested form may be a part): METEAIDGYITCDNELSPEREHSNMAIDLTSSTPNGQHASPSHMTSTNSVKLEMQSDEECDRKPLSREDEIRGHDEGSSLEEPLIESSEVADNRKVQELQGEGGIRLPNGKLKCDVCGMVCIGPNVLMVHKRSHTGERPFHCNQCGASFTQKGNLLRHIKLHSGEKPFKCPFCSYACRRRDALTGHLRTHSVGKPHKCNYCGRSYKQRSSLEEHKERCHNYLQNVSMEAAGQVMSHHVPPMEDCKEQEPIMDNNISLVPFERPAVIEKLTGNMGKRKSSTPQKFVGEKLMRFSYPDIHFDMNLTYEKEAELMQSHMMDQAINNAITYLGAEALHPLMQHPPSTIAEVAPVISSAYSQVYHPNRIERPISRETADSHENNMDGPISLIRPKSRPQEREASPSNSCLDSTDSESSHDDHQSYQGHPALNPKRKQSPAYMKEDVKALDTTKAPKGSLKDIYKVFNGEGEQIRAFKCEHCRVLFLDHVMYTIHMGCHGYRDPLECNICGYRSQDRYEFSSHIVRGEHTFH
Sequence of IKZF2 (Q96SW2 whole entry, the tested form may be a part): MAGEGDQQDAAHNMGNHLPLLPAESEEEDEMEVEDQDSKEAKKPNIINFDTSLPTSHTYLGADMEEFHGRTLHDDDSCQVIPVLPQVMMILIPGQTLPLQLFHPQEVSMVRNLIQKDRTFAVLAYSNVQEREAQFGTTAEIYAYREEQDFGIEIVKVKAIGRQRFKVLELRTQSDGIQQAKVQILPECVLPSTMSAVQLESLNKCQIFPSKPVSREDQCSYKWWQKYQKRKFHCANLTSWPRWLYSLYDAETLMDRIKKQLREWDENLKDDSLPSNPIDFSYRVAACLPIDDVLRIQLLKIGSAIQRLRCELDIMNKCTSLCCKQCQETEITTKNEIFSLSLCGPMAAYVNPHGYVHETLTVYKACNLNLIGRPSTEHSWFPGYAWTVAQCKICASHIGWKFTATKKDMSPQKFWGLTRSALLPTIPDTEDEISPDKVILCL
Sequence of IKZF2 (Q16531 whole entry partner, the tested form may be a part): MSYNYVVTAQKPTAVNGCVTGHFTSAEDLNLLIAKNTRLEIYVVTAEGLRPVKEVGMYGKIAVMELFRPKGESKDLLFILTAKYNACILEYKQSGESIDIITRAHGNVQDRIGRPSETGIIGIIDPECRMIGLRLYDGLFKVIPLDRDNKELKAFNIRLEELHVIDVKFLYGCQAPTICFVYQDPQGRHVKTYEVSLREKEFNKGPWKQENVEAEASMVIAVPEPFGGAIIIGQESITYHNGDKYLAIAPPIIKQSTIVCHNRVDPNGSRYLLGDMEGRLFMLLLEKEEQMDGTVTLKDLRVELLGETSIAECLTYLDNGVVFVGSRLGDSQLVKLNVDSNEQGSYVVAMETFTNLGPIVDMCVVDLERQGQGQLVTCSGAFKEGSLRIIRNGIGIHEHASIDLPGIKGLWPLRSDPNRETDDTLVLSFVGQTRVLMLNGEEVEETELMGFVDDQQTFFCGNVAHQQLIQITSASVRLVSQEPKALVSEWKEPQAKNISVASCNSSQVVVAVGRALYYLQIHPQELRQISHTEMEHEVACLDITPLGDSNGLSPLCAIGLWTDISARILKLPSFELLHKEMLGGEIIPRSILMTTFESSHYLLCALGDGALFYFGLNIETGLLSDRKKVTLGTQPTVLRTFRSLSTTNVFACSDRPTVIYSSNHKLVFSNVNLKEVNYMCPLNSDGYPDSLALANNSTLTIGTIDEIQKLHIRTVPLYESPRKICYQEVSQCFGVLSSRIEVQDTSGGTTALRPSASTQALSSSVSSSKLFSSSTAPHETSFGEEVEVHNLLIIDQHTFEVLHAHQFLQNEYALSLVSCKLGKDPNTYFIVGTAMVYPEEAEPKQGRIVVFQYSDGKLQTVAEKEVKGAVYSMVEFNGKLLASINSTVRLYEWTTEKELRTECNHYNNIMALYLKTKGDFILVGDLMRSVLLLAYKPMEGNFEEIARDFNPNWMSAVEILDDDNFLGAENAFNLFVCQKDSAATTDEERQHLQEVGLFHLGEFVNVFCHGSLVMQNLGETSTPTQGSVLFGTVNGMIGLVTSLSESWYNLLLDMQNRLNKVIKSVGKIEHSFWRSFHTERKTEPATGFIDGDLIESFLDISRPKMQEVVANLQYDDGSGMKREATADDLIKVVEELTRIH
(§2) Lentiviral vectors, based on the Invitrogen pLenti6.2/V5 DEST backbone, were constructed that placed the prolabel tag upstream of IKZF1, IKZF2 or GSPT1 and expressed the fusion protein from a CMV promoter.
(§3) To ensure moderate and consistent expression of the prolabel fusion proteins across all cells in the population, stable cell lines were constructed from cells expressing a single copy of the construct. Lentivirus packaged with the constructs was made using the Virapower kit from Invitrogen.
(§4) The levels of prolabel tagged fusion proteins in compound treated cell lines were measured as follows:
(§5) Day 1, Cells were diluted to 1.0×10^6 cells/ml in normal growth medium. 17.5 μL of cells were plated in each well of a solid white 384 well plate. Plates were incubated overnight in a 37° C. tissue culture incubator.
(§6) Day 2, Serial dilutions of compounds were made in 384 well plates from 10 mM stocks. 15 μL of DMSO was added to each well of a 384 well plate. In the first column 15 μL of stock compound was added. The solution was mixed and 15 μL was transferred to the next column. This was repeated until 20 two-fold dilutions were prepared. 2.5 μL of diluted compounds were transferred into 60 μL of cell culture medium in another 384 well plate, and mixed well. 2.5 μL of this mixture was added to the plated cells. The final DMSO concentration was 0.5% and the highest concentration of compound was 50 μM. Plates were incubated overnight (e.g., about 14 h, 18 h, or 24 h) in a 37° C. tissue culture incubator.
(§7) Day 3, Plates were removed from the incubator and allowed to equilibrate at rt for 30 minutes. Prolabel substrate (DiscoverX PathHunter Prolabel Detection Kit, User manual: 93-0180) was added as described by the manufacturers protocols. Plates were incubated at rt for three hours and luminescence was read using an Envision reader (Perkin Elmer) Data was analyzed and visualized using the Spotfire software package.

The next experiment concerns the target IKZF1 (Homo sapiens, UniProt Q13422+Q96SW2). Nature of the experiment: Prolabel quantification of IKZF1 protein levels in 293GT cells. Particulars: Prolabel assay, read-out: IKZF1 EC50. It is filed as cell-based. As for the experimental part: as §1, §2, §3, §4, §5, §6, §7
The mark [1] stands for this setting: 24 h, 10 μM, 24 h, 293GT cells; read-out: IKZF2 % protein reduction at 10 μM, 24 h.
Where [2] appears, read: Prolabel assay, 293GT cells; read-out: IKZF2 EC50.
The mark [3] stands for this setting: Prolabel assay in HEK293GT cells, bar graph.

Sequence of IKZF1 (Q13422 whole entry): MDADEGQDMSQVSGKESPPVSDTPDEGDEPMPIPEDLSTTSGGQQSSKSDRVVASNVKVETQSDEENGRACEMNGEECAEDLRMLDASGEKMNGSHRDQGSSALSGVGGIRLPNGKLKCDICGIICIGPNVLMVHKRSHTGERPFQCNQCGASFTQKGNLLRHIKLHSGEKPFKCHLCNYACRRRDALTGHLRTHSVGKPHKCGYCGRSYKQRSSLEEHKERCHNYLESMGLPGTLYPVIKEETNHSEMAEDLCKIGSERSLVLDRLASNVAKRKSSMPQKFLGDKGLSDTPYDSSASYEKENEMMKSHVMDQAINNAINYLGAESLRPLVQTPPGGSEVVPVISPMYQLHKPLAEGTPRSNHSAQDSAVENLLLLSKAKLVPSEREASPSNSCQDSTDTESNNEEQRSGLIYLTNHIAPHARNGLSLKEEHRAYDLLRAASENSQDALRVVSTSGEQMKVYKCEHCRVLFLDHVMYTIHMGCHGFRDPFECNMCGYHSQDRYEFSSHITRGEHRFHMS
Sequence of IKZF1 (Q96SW2 whole entry): as the sequence (Q96SW2 whole entry, the tested form may be a part) above
Sequence of IKZF1 (Q16531 whole entry partner): as the sequence (Q16531 whole entry partner, the tested form may be a part) above

As for `Nc1nc(C(F)(F)F)c(CN2CCC(c3ccc4c(c3)CN(C3CCC(=O)NC3=O)C4=O)CC2)s1` (centres unmarked) [Compound I-234, 3-(5-(1-((2-amino-4-(trifluoromethyl)thiazol-5-yl)methyl)piperidin-4-yl)-1-oxoisoindolin-2-yl)piperidine-2,6-dione], the inhibition at 10 µM on IKZF2 (setting [1]) turned out to be 50%. The DC50 on IKZF2 (setting [2]) is 120 nM; on IKZF1, above 30000 nM.

Regarding `COc1ccccc1CN1CCC(c2ccc3c(c2)CN(C2CCC(=O)NC2=O)C3=O)CC1` (centres unmarked) [Compound I-67, 3-(5-(1-(2-methoxybenzyl)piperidin-4-yl)-1-oxoisoindolin-2-yl)piperidine-2,6-dione], the inhibition at 10 µM at IKZF2 (setting [1]) amounted to 70%. In addition, the DC50 is 58 nM at IKZF2 (setting [2]) and above 30000 nM at IKZF1.

Consider `O=C1CCC(N2Cc3cc(C4CCN(Cc5cc(F)cc(F)c5)CC4)ccc3C2=O)C(=O)N1` (centres unmarked) [Compound I-26, 3-(5-(1-(3,5-difluorobenzyl)piperidin-4-yl)-1-oxoisoindolin-2-yl)piperidine-2,6-dione], for which the inhibition at 10 µM at IKZF2 (setting [1]) amounted to 65%. Besides, the values for the DC50 at IKZF2 (setting [2]) and at IKZF1 were 7 nM and above 30000 nM, respectively.

Regarding `O=C1CCC(N2Cc3cc(C4CCN(Cc5ccc6[nH]ncc6c5)CC4)ccc3C2=O)C(=O)N1` (centres unmarked) [Compound I-219, 3-(5-(1-((1H-indazol-5-yl)methyl)piperidin-4-yl)-1-oxoisoindolin-2-yl)piperidine-2,6-dione], the inhibition at 10 µM at IKZF2 (setting [1]) came out at 80%. Besides, on IKZF2 (setting [3]), the “IKZF2 protein levels as compared to the control (DMSO)” value is reported as “decreased”. Besides, the results for the DC50 on IKZF2 (setting [2]) and at IKZF1 were 11 nM and above 25000 nM, respectively.

With `O=C1CCC(N2Cc3cc(C4CCN(Cc5cccc6c5OCCO6)CC4)ccc3C2=O)C(=O)N1` (centres unmarked) [Compound I-82, 3-(5-(1-((2,3-dihydrobenzo[b][1,4]dioxin-5-yl)methyl)piperidin-4-yl)-1-oxoisoindolin-2-yl)piperidine-2,6-dione], the inhibition at 10 µM at IKZF2 (setting [1]) was determined as 60%. Moreover, the values for the DC50 at IKZF2 (setting [2]) and on IKZF1 were 4 nM and above 30000 nM, respectively.

In the case of `O=C1CCC(N2Cc3cc(C4CCN(Cc5ccc(OC(F)(F)F)cc5)CC4)ccc3C2=O)C(=O)N1` (centres unmarked) [Compound I-51, 3-(1-oxo-5-(1-(4-(trifluoromethoxy)benzyl)piperidin-4-yl)isoindolin-2-yl)piperidine-2,6-dione], on IKZF2 (setting [1]), the inhibition at 10 µM was found to be 60%. The results for the DC50 at IKZF2 (setting [2]) and at IKZF1 were 15 nM and above 30000 nM, respectively.

Regarding `Cc1ccc(CN2CCC(c3ccc4c(c3)CN(C3CCC(=O)NC3=O)C4=O)CC2)cc1F` (centres unmarked) [Compound I-69, 3-(5-(1-(3-fluoro-4-methylbenzyl)piperidin-4-yl)-1-oxoisoindolin-2-yl)piperidine-2,6-dione], the inhibition at 10 µM on IKZF2 (setting [1]) amounted to 80%. At IKZF2 (setting [3]), the “IKZF2 protein levels as compared to the control (DMSO)” value is recorded as “decreased”. Moreover, the DC50 is 15 nM at IKZF2 (setting [2]) and above 30000 nM at IKZF1.

Turning to `O=C1CCC(N2Cc3cc(C4CCN(Cc5ccc(CF)cc5)CC4)ccc3C2=O)C(=O)N1` (centres unmarked) [Compound I-63, 3-(5-(1-(4-(fluoromethyl)benzyl)piperidin-4-yl)-1-oxoisoindolin-2-yl)piperidine-2,6-dione], the inhibition at 10 µM at IKZF2 (setting [1]) turned out to be 75%. The DC50 at IKZF2 (setting [2]) was 11 nM; on IKZF1, above 30000 nM.

Regarding `O=C1CCC(N2Cc3cc(C4CCN(Cc5ccc6c(c5)NCCS6)CC4)ccc3C2=O)C(=O)N1` (centres unmarked) [Compound I-141, 3-(5-(1-((3,4-dihydro-2H-benzo[b][1,4]thiazin-6-yl)methyl)piperidin-4-yl)-1-oxoisoindolin-2-yl)piperidine-2,6-dione], on IKZF2 (setting [1]), the inhibition at 10 µM turned out to be 80%. Moreover, the values for the DC50 on IKZF2 (setting [2]) and at IKZF1 were 9 nM and above 30000 nM, respectively.

As to `O=C1CCC(N2Cc3cc(C4CCN(Cc5cc(F)ccc5F)CC4)ccc3C2=O)C(=O)N1` (centres unmarked) [Compound I-29, 3-(5-(1-(2,5-difluorobenzyl)piperidin-4-yl)-1-oxoisoindolin-2-yl)piperidine-2,6-dione], the inhibition at 10 µM on IKZF2 (setting [1]) was found to be 70%. In addition, the DC50 on IKZF2 (setting [2]) was 36 nM; at IKZF1, above 30000 nM.

Take `O=C1CCC(N2Cc3cc(C4CCN(Cc5ncccn5)CC4)ccc3C2=O)C(=O)N1` (centres unmarked) [Compound I-95, 3-(1-oxo-5-(1-(pyrimidin-2-ylmethyl)piperidin-4-yl)isoindolin-2-yl)piperidine-2,6-dione]: at IKZF2 (setting [1]), the inhibition at 10 µM amounted to 20%. Also, the DC50 on IKZF2 (setting [2]) is 130 nM; at IKZF1, above 30000 nM.

On to `O=C1CCC(N2Cc3cc(C4CCN(Cc5cccc(OC(F)F)c5)CC4)ccc3C2=O)C(=O)N1` (centres unmarked) [Compound I-79, 3-(5-(1-(3-(difluoromethoxy)benzyl)piperidin-4-yl)-1-oxoisoindolin-2-yl)piperidine-2,6-dione], for which the inhibition at 10 µM at IKZF2 (setting [1]) worked out at 75%. In addition, the results for the DC50 at IKZF2 (setting [2]) and at IKZF1 were 3 nM and above 30000 nM, respectively.

For the compound `O=C1CCC(N2Cc3cc(C4CCN(Cc5cnc[nH]5)CC4)ccc3C2=O)C(=O)N1` (centres unmarked) [Compound I-120, 3-(5-(1-((1H-imidazol-5-yl)methyl)piperidin-4-yl)-1-oxoisoindolin-2-yl)piperidine-2,6-dione], the inhibition at 10 µM on IKZF2 (setting [1]) was found to be 50%. The DC50 at IKZF2 (setting [2]) is 830 nM; at IKZF1, above 30000 nM.

Take `O=C(O)Cc1ccc(CN2CCC(c3ccc4c(c3)CN(C3CCC(=O)NC3=O)C4=O)CC2)cc1` (centres unmarked) [Compound I-231, 2-(4-((4-(2-(2,6-dioxopiperidin-3-yl)-1-oxoisoindolin-5-yl)piperidin-1-yl)methyl)phenyl)acetic acid]: the inhibition at 10 µM at IKZF2 (setting [1]) worked out at 60%. Besides, the DC50 at IKZF2 (setting [2]) was 250 nM; on IKZF1 it was above 30000 nM.

In the case of `O=C1CCC(N2Cc3cc(C4CCN(C(CF)c5ccccc5)CC4)ccc3C2=O)C(=O)N1` (centres unmarked) [Compound I-212, 3-(5-(1-(2-fluoro-1-phenylethyl)piperidin-4-yl)-1-oxoisoindolin-2-yl)piperidine-2,6-dione], the inhibition at 10 µM on IKZF2 (setting [1]) worked out at 60%. Moreover, the DC50 on IKZF2 (setting [2]) was 49 nM; on IKZF1, above 30000 nM.

`CC1CN(Cc2ccccc2)CCC1c1ccc2c(c1)CN(C1CCC(=O)NC1=O)C2=O` (centres unmarked) [Compound I-187, 3-(5-(1-benzyl-3-methylpiperidin-4-yl)-1-oxoisoindolin-2-yl)piperidine-2,6-dione]: on IKZF2 (setting [1]), the inhibition at 10 µM stood at 50%. The DC50 was 67 nM on IKZF2 (setting [2]) and above 30000 nM on IKZF1.

As to `Cc1cn(C)c(CN2CCC(c3ccc4c(c3)CN(C3CCC(=O)NC3=O)C4=O)CC2)n1` (centres unmarked) [Compound I-129, 3-(5-(1-((1,4-dimethyl-1H-imidazol-2-yl)methyl)piperidin-4-yl)-1-oxoisoindolin-2-yl)piperidine-2,6-dione], the inhibition at 10 µM on IKZF2 (setting [1]) was determined as 40%. For the same compound, the DC50 was 190 nM on IKZF2 (setting [2]) and above 30000 nM on IKZF1.

Regarding `O=C1CCC(N2Cc3cc(C4CCN(Cc5nccc6ccccc56)CC4)ccc3C2=O)C(=O)N1` (centres unmarked) [Compound I-226, 3-(5-(1-(isoquinolin-1-ylmethyl)piperidin-4-yl)-1-oxoisoindolin-2-yl)piperidine-2,6-dione], the inhibition at 10 µM at IKZF2 (setting [1]) turned out to be 50%. Besides, the results for the DC50 on IKZF2 (setting [2]) and on IKZF1 were 10 nM and above 25000 nM, respectively.

For the compound `O=C1CCC(N2Cc3cc(C4CCN(Cc5ccc6[nH]c(=O)[nH]c6c5)CC4)ccc3C2=O)C(=O)N1` (centres unmarked) [Compound I-259, 3-(1-oxo-5-(1-((2-oxo-2,3-dihydro-1H-benzo[d]imidazol-5-yl)methyl)piperidin-4-yl)isoindolin-2-yl)piperidine-2,6-dione], at IKZF2 (setting [1]), the inhibition at 10 µM turned out to be 60%. Also, the DC50 at IKZF2 (setting [2]) was 1300 nM; on IKZF1, above 30000 nM.

Turning to `O=C1CCC(N2Cc3cc(C4CCN(Cc5nc6ccccc6s5)CC4)ccc3C2=O)C(=O)N1` (centres unmarked) [Compound I-200, 3-(5-(1-(benzo[d]thiazol-2-ylmethyl)piperidin-4-yl)-1-oxoisoindolin-2-yl)piperidine-2,6-dione], on IKZF2 (setting [1]), the inhibition at 10 µM was 35%. Further, the DC50 was 67 nM on IKZF2 (setting [2]) and above 30000 nM at IKZF1.

Regarding `CC(C)(C)c1ccc(CN2CCC(c3ccc4c(c3)CN(C3CCC(=O)NC3=O)C4=O)CC2)cc1` (centres unmarked) [Compound I-84, 3-(5-(1-(4-(tert-butyl)benzyl)piperidin-4-yl)-1-oxoisoindolin-2-yl)piperidine-2,6-dione], at IKZF2 (10 μM, 24 h, 293GT cells; read-out: IKZF2 % protein reduction at 10 μM, 24 h), the inhibition at 10 µM amounted to 60%. The figures for the DC50 at IKZF2 (setting [2]) and on IKZF1 were 15 nM and above 30000 nM, respectively.

These data come from patent US11053218B2, “3-(1-oxoisoindolin-2-yl)piperidine-2,6-dione derivatives and uses thereof” (Novartis AG, priority 2017, dated 2021).
